Measured values taken from US5288709A, “Erythromycin derivatives” (priority 1991, dated 1994).
Converted amounts (≈) assume the structure as drawn.

Key:
[1] = test system: Acinetobacter SP CMX 669; assay: In-vitro antimicrobial activity primary screen (agar dilution MIC); type: cell-based; conditions: Acinetobacter, SPCMX669, 24 h
In short: (§1)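 Each strain was applied with a Steers replicator block to agar plates containing graded test compound, using 1:100 inocula, or 1:10 where growth was slow, as with Streptococcus. Plates were incubated for 20-24 hours at 35-37° C. A reference antibiotic of the same class was run alongside.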

[2] = test system: Enterobacter aerogenes ATCC 13048; assay: as above; type: cell-based; conditions: Klebsiella aerogenes, ATCC13048; Enterobacter aerogenes ATCC 13048; BHI agar, 20-24 h; read-out: MIC
In short: as §1

[3] = test system: Enterococcus faecium ATCC 8043; assay: as above; type: cell-based; conditions: Enterococcus faecium, ATCC8043, 24 h
In short: as §1

[4] = test system: Escherichia coli DC-2; assay: as above; type: cell-based; conditions: DC2; Escherichia coli DC-2; BHI agar, 20-24 h; read-out: MIC
In short: as §1

[5] = test system: Escherichia coli H560; assay: as above; type: cell-based; conditions: Escherichia coli H560; BHI agar, 20-24 h; read-out: MIC
In short: as §1

[6] = test system: Escherichia coli JUHL; assay: as above; type: cell-based; conditions: Escherichia coli JUHL; BHI agar, 20-24 h; read-out: MIC
In short: as §1

[7] = test system: Escherichia coli SS; assay: as above; type: cell-based; conditions: BHI agar, 20-24 h, read-out: MIC
In short: as §1

[8] = test system: Klebsiella pneumoniae ATCC 8045; assay: as above; type: cell-based; conditions: Klebsiella pneumoniae, ATCC8045, 24 h, Klebsiella pneumoniae ATCC 8045; BHI agar, 20-24 h
In short: as §1

[9] = test system: Micrococcus luteus ATCC 4698; assay: as above; type: cell-based; conditions: Micrococcus luteus, ATCC4698, 24 h, BHI agar, 20-24 h
In short: as §1

[10] = test system: Providencia stuartii CMX 640; assay: as above; type: cell-based; conditions: CMX640; Providencia stuartii CMX 640; BHI agar, 20-24 h; read-out: MIC
In short: as §1

[11] = test system: Pseudomonas aeruginosa A5007; assay: as above; type: cell-based; conditions: Pseudomonas aeruginosa A5007; BHI agar, 20-24 h; read-out: MIC
In short: as §1

[12] = test system: Pseudomonas aeruginosa K799/61; assay: as above; type: cell-based; conditions: Pseudomonas aeruginosa K799/61; BHI agar, 20-24 h; read-out: MIC
In short: as §1

[13] = test system: Pseudomonas aeruginosa K799/WT; assay: as above; type: cell-based; conditions: Pseudomonas aeruginosa K799/WT; BHI agar, 20-24 h; read-out: MIC
In short: as §1

[14] = test system: Staphylococcus aureus 45 RAR2; assay: as above; type: cell-based; conditions: Staphylococcus aureus, 45RAR2, 24 h, BHI agar, 20-24 h
In short: as §1

[15] = test system: Staphylococcus aureus ATCC 6538P; assay: as above; type: cell-based; conditions: Staphylococcus aureus, ATCC6538P, 24 h, BHI agar, 20-24 h
In short: as §1

[16] = test system: Staphylococcus epidermidis 3519; assay: as above; type: cell-based; conditions: BHI agar, 20-24 h, read-out: MIC
In short: as §1

[17] = test system: Streptococcus agalactiae CMX 508; assay: as above; type: cell-based; conditions: CMX508, BHI agar, 20-24 h, read-out: MIC
In short: as §1

[18] = test system: Streptococcus bovis A5169; assay: as above; type: cell-based; conditions: Streptococcus equinus, BHI agar, 20-24 h, read-out: MIC
In short: as §1

[19] = test system: Streptococcus pyrogenes 2548 INDUC; assay: as above; type: cell-based; conditions: Streptococcus, 2548INDUC, 24 h, BHI agar, 20-24 h
In short: as §1

[20] = test system: Streptococcus pyrogenes EES61; assay: as above; type: cell-based; conditions: BHI agar, 20-24 h, read-out: MIC
In short: as §1

[21] = test system: Staphylococcus aureus CMX 503A; assay: as above; type: cell-based; conditions: Staphylococcus aureus, CMX503A, 24 h, BHI agar, 20-24 h, read-out: MIC
In short: (§2)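 Agar dilution in Brain Heart Infusion agar with twelve successive compound dilutions; plates inoculated with 1:100 diluted cultures by replicator and incubated 20-24 h at 35-37 °C. MIC is the lowest concentration giving no growth, slight haze or sparse isolated colonies versus compound-free control; erythromycin A plate run as reference.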

[22] = test system: Staphylococcus aureus CMX 553; assay: as above; type: cell-based; conditions: Staphylococcus aureus, CMX553, 24 h, BHI agar, 20-24 h, read-out: MIC
In short: as §2

[23] = test system: Staphylococcus aureus CMX 686B; assay: as above; type: cell-based; conditions: CMX686B, BHI agar, 20-24 h, read-out: MIC
In short: as §2

[24] = test system: Streptococcus pyogenes C-203; assay: In-vivo acute mouse protection assay; parameters: species or system Streptococcus pyogenes; female Swiss albino mice; conditions: dosed 1 and 5 h post-infection, observed 7 days
In short: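 Female Swiss albino mice (18–20 g), ten per dose, received three four-fold-spaced doses orally by gavage or subcutaneously at 1 and 5 h post-infection. Inoculum potency was checked by LD50 titration in control animals. ED50 was calculated from mortality over 7 days of observation.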

[25] = test system: Haemophilus influenzae (ATCC 43095); assay: In-vivo acute mouse protection assay; parameters: species or system Haemophilus influenzae; female Swiss albino mice; conditions: ATCC43095, 168 h, oral, dosed 1 and 5 h post-infection, observed 7 days, read-out: ED50
Description: An acute mouse protection test was conducted on ten mice with each of three concentrations of selected compounds of the invention. Each concentration was a four-fold dilution of the previous concentration. The initial concentration will vary with the microorganism with which the mouse is challenged.
The acute mouse protection test was conducted on female, Swiss albino mice, 18-20 grams in weight. […] To check the potency of the inoculum, a titration of the indicated test organism was carried out in control animals. The titration determines the LD50 for a particular microorganism. The treatment groups of animals were dosed orally, by gavage, or subcutaneously with the test compounds at 1 and 5 hours post-infection and observed for 7 days. The ED50 were calculated using the mortality data collected.

[26] = Pharmacokinetic evaluation in dogs after a 10 mg/kg dose; conditions: dog, plasma; for half-life: t1/2 (biological half life); for bioavailability: % ABS (percent absorbance), from AUC (absolute bioavailability); for Cmax: Cmax (maximum concentration in blood); for Tmax: Tmax (time to achieve maximum concentration in blood)
Description: Selected compounds of the present invention were formulated as solutions in dilute lactobionic acid at a concentration of 10 or 20 mg/ml. Groups of two or three dogs were given a 10 mg macrolide/kg intravenous bolus or oral dose (by gavage). Plasma samples, obtained at selected time points from 15 minutes to 32 hours after dosing, were assayed using reverse phase HPLC with electrochemical detection (parent drug) and microbiological assay (total microbiological activity). Plasma concentration time curves were subjected to multi exponential curve fitting to determine terminal elimination half life values. Area under the curve (AUC) values, calculated by the trapezoidal method, were used to calculate absolute bioavailability.

[27] = po, oral 10 mg/kg, HPLC (parent drug)
[28] = po, oral 10 mg/kg, microbiological assay

Compound CC[C@H]1OC(=O)[C@H](C)[C@@H](O[C@H]2C[C@@](C)(OC)[C@@H](O)[C@H](C)O2)[C@H](C)[C@@H](O[C@@H]2O[C@H](C)C[C@H](N(C)C)[C@H]2O)[C@](C)(O)C[C@@H](C)[C@@H]2O[C@@]1(C)[C@@H](N)[C@H]2C [Example 19, (9S,11S)-11-Amino-9-deoxo-11,12-deoxy-9,12-epoxyerythromycin A] has an MIC [1] of 1.56 µg/mL (≈ 2.18 µM), an MIC [2] of 100 µg/mL (≈ 139 µM) and an MIC [3] of 0.05 µg/mL (≈ 0.0697 µM). For the same compound, the MIC [4] was 50 µg/mL (≈ 69.7 µM), the MIC [5] was 6.2 µg/mL (≈ 8.65 µM) and the MIC [6] was > 100 µg/mL. For the same compound, the MIC [7] was 0.78 µg/mL (≈ 1.09 µM), the MIC [8] was 25 µg/mL (≈ 34.9 µM) and the MIC [9] was 0.1 µg/mL (≈ 0.139 µM). The MIC [10] was > 100 µg/mL, the MIC [11] was > 100 µg/mL and the MIC [12] was 0.78 µg/mL (≈ 1.09 µM). The MIC [13] was 100 µg/mL (≈ 139 µM), the MIC [14] was 0.39 µg/mL (≈ 0.544 µM) and the MIC [15] was 0.2 µg/mL (≈ 0.279 µM). For the same compound, the MIC [16] was 0.2 µg/mL (≈ 0.279 µM), the MIC [17] was 0.02 µg/mL (≈ 0.0279 µM) and the MIC [18] was 0.1 µg/mL (≈ 0.139 µM). For the same compound, the MIC [19] was 3.1 µg/mL (≈ 4.32 µM), the MIC [20] was < 0.005 µg/mL and the MIC [21] was 0.2 µg/mL (≈ 0.279 µM). It also gave an MIC [22] of 0.2 µg/mL (≈ 0.279 µM), an MIC [23] of 0.2 µg/mL (≈ 0.279 µM) and an ED50 ([24]; C203, 168 h, oral) of 28.9 mg/kg. It also gave an ED50 ([24]; C203, sc, 168 h, subcutaneous) of 2.5 mg/kg, an ED50 [25] of 101 mg/kg and a half-life ([26]; iv, IV 10 mg/kg, HPLC (parent drug)) of 7.5 h. The half-life ([26]; iv, IV 10 mg/kg, microbiological assay) was 6.6 h, the bioavailability [26, 27] was 59% and the bioavailability [26, 28] was 67%. The Cmax [26, 27] was 3200 ng/mL, the Cmax [26, 28] was 3300 ng/mL and the Tmax [26, 27] was 0.25 h. For the same compound, the Tmax [26, 28] was 0.4 h, the half-life [26, 27] was 8.1 h and the half-life [26, 28] was 5.8 h.
